# Data published in US8865716B2, “Dihydropteridinones II” (Boehringer Ingelheim International GmbH, priority 2013, dated 2014).
# Test system: Aβ42
# Experiment: Aβ42 production in H4 neuroglioma cells stably expressing human APP695 (Meso Scale Discovery electrochemiluminescence assay)
# Type: cell-based
# Conditions: higher ratio = more specific inhibition of Aβ42 over Aβ total
# Procedure: Cells were plated out to near confluency. The compounds to be tested were received as 10 mM stocks in 100% DMSO. A dilution series was initially generated in 100% DMSO and then diluted 200-fold in cell culture media such that the tested concentration range was 30 μM to 0.1 nM and the final DMSO concentration was 0.5%. The diluted compounds were incubated with the cells for 22 hours in an incubator at 37° C. and 5% CO2. Aβ42 as well as Aβ total levels were then measured post-incubation from the supernatant of the cells. Aβ42 levels were determined using a specific electrochemiluminescence assay provided by Meso Scale Discovery (Catalog #L21CA-1) according to the manufacturer's protocol. Aβ total levels were likewise determined using a specific electrochemiluminescence assay provided by Meso Scale Discovery (Catalog #L21ZA-1) according to the manufacturer's protocol.
# In order to absolutely define the described compounds as modulators of γ-Secretase as opposed to simply inhibitors of γ-Secretase, measurements of not only Aβ42 but also Aβ total are performed.
row,Compound,Ratio Aβ(total)/Aβ42 (Aβ total IC50/Aβ42 IC50)
1,CCCN1C(=O)C2(CCOCC2)N(C)c2nc(Nc3ccc(-n4cnc(C)c4)c(OC)c3)ncc21 [Example 17],65
2,COc1cc(Nc2nc3c(c(C(C)(C)O)n2)N(C)C(=O)C2(CCOC2)N3C)ccc1-c1cnc(C)o1 (stereo not shown) [Example 40],>62
3,COCCN1C(=O)C2(CCOCC2)N(C)c2nc(Nc3ccc(-n4cnc(C)c4)c(OC)c3)ncc21 [Example 11],26
4,COc1cc(Nc2ncc3c(n2)N(C)C2(CCOC2)C(=O)N3C)ccc1-c1cnc(C)o1 (stereo not shown) [Example 7],>315
5,COCCN1C(=O)C2(CCOC2)N(C)c2nc(Nc3ccc(-n4cnc(C)c4)c(OC)c3)ncc21 (stereo not shown) [Example 16],88
6,COc1cc(Nc2ncc3c(n2)N(C)C2(CCOCC2)C(=O)N3Cc2ccc(F)cc2F)ccc1-n1cnc(C)c1 [Example 37j],57
7,COc1cc(Nc2ncc3c(n2)N(C)C2(CCOCC2)C(=O)N3c2ccc(F)cc2)ccc1-n1cnc(C)c1 [Example 37f],55
8,COc1cc(Nc2ncc3c(n2)N(C)C2(CC4CCC2C4)C(=O)N3C)cnc1-n1cnc(C)c1 (stereo not shown) [Example 49],69
9,Cc1ncc(-c2ccc(Nc3ncc4c(n3)N(C)C3(CCOCC3)C(=O)N4C)cn2)o1 [Example 3],>6
10,COc1cc(Nc2ncc3c(n2)N(C)C2(CCOC2)C(=O)N3C2CC2)ccc1-n1cnc(C)c1 (stereo not shown) [Example 37g],58
11,COCCN1C(=O)C2(CCOCC2)N(C)c2nc(Nc3ccc(-c4ccnc(C)c4)cc3)ncc21 [Example 12],11
12,Cc1cn(-c2ccc(Nc3ncc4c(n3)NC3(CCOC3)C(=O)N4C)cc2C#N)cn1 (stereo not shown) [Example 19],>257
13,Cc1ncc(-c2ccc(Nc3nc(C)c4c(n3)N(C)C3(CCOCC3)C(=O)N4C)cn2)o1 [Example 5],>9
14,COc1cc(Nc2ncc3c(n2)N(C)C2(CCOC2)C(=O)N3)ccc1-n1cnc(C)c1 (stereo not shown) [Example 10],46
15,COCCN1c2nc(Nc3ccc(-c4cnc(C)o4)c(OC)c3)nc(CC(C)C)c2N(C)C(=O)C12CCOC2 (stereo not shown) [Example 31],47
16,COc1cc(Nc2ncc3c(n2)N(C)C2(CCCOCC2)C(=O)N3C)ccc1-n1cnc(C)c1 (stereo not shown) [Example 42],51
17,COc1cc(Nc2ncc3c(n2)N(C)C2(CCOC2)C(=O)N3C)ccc1-n1cnc(C)c1 (stereo not shown) [Example 6],>136
18,COc1cc(Nc2nc3c(c(C(F)(F)F)n2)N(C)C(=O)C2(CCOCC2)N3C)ccc1-n1cnc(C)c1 [Example 37d],>36
19,COCCN1c2nc(Nc3ccc(-n4cnc(C)c4)c(OC)c3)nc(CC(C)C)c2N(C)C(=O)C12CCOC2 (stereo not shown) [Example 30],96
20,COc1cc(Nc2ncc3c(n2)N(C)C2(CC2)C(=O)N3CC(F)F)ccc1-n1cnc(C)c1 [Example 52],61
21,COCCN1C(=O)C2(CCOCC2)N(C)c2nc(Nc3ccc(-n4cnc(C)n4)c(OC)c3)ncc21 [Example 13],>13
22,Cc1ncc(-c2ccc(Nc3ncc4c(n3)N(C)C3(CCc5ccccc5C3)C(=O)N4C)cn2)o1 (stereo not shown) [Example 37],29
23,Cc1ncc(-c2ccc(Nc3ncc4c(n3)N(C)C3(CCOC3)C(=O)N4C)cn2)o1 (stereo not shown) [Example 8],>10
24,COc1cc(Nc2ncc3c(n2)N(C)C2(CCOC2)C(=O)N3C(C)c2ccccn2)ccc1-n1cnc(C)c1 (stereo not shown) [Example 37k],88
25,COc1cc(Nc2ncc3c(n2)N(C)C2(CCOCC2)C(=O)N3)ccc1-n1cnc(C)c1 [Example 9],>101
26,COc1cc(Nc2ncc3c(n2)N(C2CCCC2)C2(CC2)C(=O)N3C)ccc1-n1cnc(C)c1 [Example 38],>15

row,Compound,Ratio Aβ(total)/Aβ42 (Aβ total IC50/Aβ42 IC50)
1,COc1cc(Nc2ncc3c(n2)N(C)C2(CC2)C(=O)N3C2COC2)ccc1-n1cnc(C)c1 [Example 47],98
2,CCc1nc(Nc2ccc(-n3cnc(C)c3)c(C#N)c2)nc2c1N(C)C(=O)C1(CCOC1)N2C (stereo not shown) [Example 35],180
3,COc1cc(Nc2ncc3c(n2)N(C)C2(CCOCC2)C(=O)N3C2CC2)ccc1-n1cnc(C)c1 [Example 37b],47
4,COc1cc(Nc2ncc3c(n2)NC2(CCOC2)C(=O)N3CC2CCOCC2)ccc1-n1cnc(C)c1 (stereo not shown) [Example 22],>9
5,COc1cc(Nc2ncc3c(n2)N(C)C2(CCCCOC2)C(=O)N3C)ccc1-n1cnc(C)c1 (stereo not shown) [Example 39],91
6,COc1cc(Nc2ncc3c(n2)N(C)C2(CCOC2)C(=O)N3CC2CCOCC2)ccc1-n1cnc(C)c1 (stereo not shown) [Example 26],46
7,COc1cc(Nc2ncc3c(n2)N(C)C2(CC2)C(=O)N3CC(F)(F)F)ccc1-n1cnc(C)c1 [Example 44],50
8,COc1cc(Nc2ncc3c(n2)N(C)C2(CC2)C(=O)N3c2ccc(F)cc2)ccc1-n1cnc(C)c1 [Example 46],>306
9,COc1cc(Nc2ncc3c(n2)N(C)C2(CCOCC2)C(=O)N3C)ccc1-c1cnc(C)o1 [Example 1],>244
10,COCCN1C(=O)C2(CCOC2)N(C)c2nc(Nc3ccc(-c4ccnc(C)c4)cc3)ncc21 (stereo not shown) [Example 14],>27
11,COc1cc(Nc2ncc3c(n2)N(C)C2(CCOC2)C(=O)N3c2ccc(C(F)(F)F)cn2)ccc1-n1cnc(C)c1 (stereo not shown) [Example 48],22
12,COCCN1C(=O)C2(CCOC2)N(C)c2nc(Nc3ccc(-n4cnc(C)n4)c(OC)c3)ncc21 (stereo not shown) [Example 15],>15
13,COc1cc(Nc2ncc3c(n2)N(C)C2(CC2)C(=O)N3CC(F)(F)F)cnc1-n1cnc(C)c1 [Example 50],>147
14,COc1cc(Nc2ncc3c(n2)NC2(CCOC2)C(=O)N3CCC(C)C)ccc1-n1cnc(C)c1 (stereo not shown) [Example 29],39
15,COc1cc(Nc2ncc3c(n2)N(C)C2(CCOC2)C(=O)N3CC(F)(F)F)ccc1-n1cnc(C)c1 (stereo not shown) [Example 37e],82
16,COc1cc(Nc2ncc3c(n2)N(C)C2(CCOC2)C(=O)N3CC(F)F)ccc1-n1cnc(C)c1 (stereo not shown) [Example 37h],85
17,COc1cc(Nc2ncc3c(n2)N(CC2CCOCC2)C2(CCOC2)C(=O)N3CC2CCOCC2)ccc1-n1cnc(C)c1 (stereo not shown) [Example 24],>10
18,COc1cc(Nc2ncc3c(n2)N(C)C2(COC2)C(=O)N3C)ccc1-n1cnc(C)c1 [Example 41],>25
19,COc1cc(Nc2ncc3c(n2)NC2(CCOC2)C(=O)N3C)ccc1-n1cnc(C)c1 (stereo not shown) [Example 20],>90
20,COc1cc(Nc2ncc3c(n2)N(C)C2(COCCOC2)C(=O)N3C)ccc1-n1cnc(C)c1 [Example 27],>112
21,COc1cc(Nc2ncc3c(n2)NC2(CCOC2)C(=O)N3C2COC2)ccc1-n1cnc(C)c1 (stereo not shown) [Example 28],>3
22,COc1cc(Nc2ncc3c(n2)N(C)C2(CCOCC2)C(=O)N3C)ccc1-n1cnc(C)c1 [Example 2],89
23,COc1cc(Nc2ncc3c(n2)N(C)C2(CCC2)C(=O)N3CC(F)(F)F)ccc1-c1cnc(C)o1 [Example 45],>517
24,COc1cc(Nc2ncc3c(n2)N(C)C2(CCOCC2)C(=O)N3c2cc(F)cc(F)c2)ccc1-n1cnc(C)c1 [Example 37c],75
25,CCc1nc(Nc2cnc(-n3cnc(C)c3)c(OC)c2)nc2c1N(C)C(=O)C1(CC1)N2C [Example 37i],54
26,COc1cc(Nc2ncc3c(n2)N(C)C2(COCCOC2)C(=O)N3)ccc1-n1cnc(C)c1 [Example 25],91
